This is an account of results in US20170253601A1, “Substituted Pyrrolidine Compounds” (EPIZYME, INC., priority 2014, published 2017).

SMILES strings stand for the structures. pIC50: −log10 of the molar value.

As usually defined, the IC50 is the midpoint of a concentration-inhibition curve. One may read the pIC50 as the negative decadic logarithm of the IC50, by convention in mol/L.

In the first test the target is T1, SMYD2 (Homo sapiens, UniProt Q9NRG4).
T1 construct: Full length SMYD2 (NP 064582.2) was cloned; His6 (N, cleaved yes); FLAG (N); made in house; host or cells: Sf9 insect cells
T1 sequence (Q9NRG4 whole entry): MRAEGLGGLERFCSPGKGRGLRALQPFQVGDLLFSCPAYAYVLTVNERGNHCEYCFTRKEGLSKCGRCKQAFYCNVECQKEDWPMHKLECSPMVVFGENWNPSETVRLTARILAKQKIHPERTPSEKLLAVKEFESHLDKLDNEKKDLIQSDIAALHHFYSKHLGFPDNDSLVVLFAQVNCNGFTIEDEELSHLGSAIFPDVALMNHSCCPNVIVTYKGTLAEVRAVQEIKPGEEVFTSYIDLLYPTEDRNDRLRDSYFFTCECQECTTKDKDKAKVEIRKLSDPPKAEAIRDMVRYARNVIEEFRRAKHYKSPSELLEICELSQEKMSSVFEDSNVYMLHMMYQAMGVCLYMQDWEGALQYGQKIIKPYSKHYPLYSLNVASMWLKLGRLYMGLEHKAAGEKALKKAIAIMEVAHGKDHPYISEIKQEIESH
Briefly: SMYD2 Biochemical Assay (3H-SAM, biotinylated peptide substrate, Flashplate). The settings on record: IC50 values are an average of n = 1 to n = 50; read-out: SMYD2 Biochem IC50 (μM)*. The source says: S-adenosylmethionine (SAM), S-adenosylhomocysteine (SAH), bicine, Tween20, dimethylsulfoxide (DMSO), bovine skin gelatin (BSG), and Tris(2-carboxyethyl)phosphine hydrochloride (TCEP) were purchased from Sigma-Aldrich at the highest level of purity possible. ^3H-SAM was purchase from American Radiolabeled Chemicals with a specific activity of 80 Ci/mmol. 384-well streptavidin Flashplates were purchased from PerkinElmer.
Peptide was synthesized with a N-terminal linker-affinity tag motif and a C-terminal amide cap by 21st Century Biochemicals. The peptide was high-performance liquid chromatography (HPLC) purified to greater than 95% purity and confirmed by liquid chromatography mass spectrometry (LC-MS). The sequence was […](K-Biot)-amide. (SEQ ID No: 3)
Full length SMYD2 (NP 064582.2) was cloned into a pFastbac-Htb-lic vector with an N-terminal His6 tag and FLAG tag, preceded by a TEV protease cleavage site. The protein was expressed in Sf9 insect cells. Cells were resuspended in lysis buffer (25 mM HEPES-NaOH, pH 7.5, 200 mM NaCl, 5% glycerol, and 5 mM β-ME) and lysed by sonication. The protein was purified by Ni-NTA (Qiagen), followed by TEV cleavage to remove the His6 tag, subtractive Ni-NTA (Qiagen), and gel filtration chromatography using an […] (GE Healthcare). Purified protein was stored in 20 mM Tris-HCl, pH 8.0, 100 mM NaCl, and 1 mM TCEP.
The assays were all performed in a buffer consisting of 20 mM Bicine (pH=7.6), 1 mM TCEP, 0.005% Bovine Skin Gelatin, and 0.002% Tween20, prepared on the day of use. Compounds in 100% DMSO (1 ul) were spotted into a polypropylene 384-well V-bottom plates (Greiner) using a Platemate Plus outfitted with a 384-channel head (Thermo Scientific). DMSO (1 ul) was added to Columns 11, 12, 23, 24, rows A-H for the maximum signal control and 1 ul of SAH, a known product and inhibitor of SMYD2, was added to columns 11, 12, 23, 24, rows I-P for the minimum signal control. A cocktail (40 ul) containing the SMYD2 enzyme was added by Multidrop Combi (Thermo-Fisher). The compounds were allowed to incubate with SMYD2 for 30 min at room temperature, then a cocktail (10 ul) containing ^3H-SAM and peptide was added to initiate the reaction (final volume=51 ul). The final concentrations of the components were as follows: SMYD2 was 1.5 nM, ^3H-SAM was 10 nM, and peptide was 60 nM, SAH in the minimum signal control wells was 1000 uM, and the DMSO concentration was 2%. The assays were stopped by the addition of non-radioactive SAM (10 ul) to a final concentration of 600 uM, which dilutes the ^3H-SAM to a level where its incorporation into the peptide substrate is no longer detectable. 50 ul of the reaction in the 384-well polypropylene plate was then transferred to a 384-well Flashplate and the biotinylated peptides were allowed to bind to the streptavidin surface for at least 1 hour before being washed three times with 0.1% Tween20 in a Biotek ELx405 plate washer. The plates were then read in a PerkinElmer TopCount plate reader to measure the quantity of ^3H-labeled peptide bound to the Flashplate surface, measured as disintegrations per minute (dpm) or alternatively, referred to as counts per minute (cpm).
Where dpm=disintegrations per minute, cmpd=signal in assay well, and min and max are the respective minimum and maximum signal controls.
Where top and bottom are the normally allowed to float, but may be fixed at 100 or 0 respectively in a 3-parameter fit. The Hill Coefficient normally allowed to float but may also be fixed at 1 in a 3-parameter fit. I is the compound concentration.
SMYD2 biochemical assay data for representative Compounds of the Disclosure are presented in Tables 1-3 in the column titled “SMYD2 Biochem IC50 (μM).”
For the compound `C[C@H]1CN(CC2CCCOC2)C[C@H]1NC(=O)c1cc(C2CC2)on1` (mixture of isomers) [compound 185, (±)-cis-5-cyclopropyl-N-[4-methyl-1-(oxan-3-ylmethyl)pyrrolidin-3-yl]-1,2-oxazole-3-carboxamide], the IC50 came to 4.92 µM.

Consider `CC(C)N1C[C@H](C)[C@H](NC(=O)c2cc(C3(C)CCC3)on2)C1` (racemic) [compound 260, (±)-cis-N-[4-methyl-1-(propan-2-yl)pyrrolidin-3-yl]-5-(1-methyl-cyclobutyl)-1,2-oxazole-3-carboxamide], for which the IC50 is greater than 50 µM.

In the case of `CC(C)N1C[C@H](NC(=O)c2cc(C3CC3)on2)[C@@H](C2CC2)C1` (racemic) [compound 138, (±)-trans-5-cyclopropyl-N-[4-cyclopropyl-1-(propan-2-yl)pyrrolidin-3-yl]-1,2-oxazole-3-carboxamide], the IC50 worked out at 48.1 µM.

For the compound `CC(C)c1cc(C(=O)N[C@@H]2CN(C(C)C)C[C@@H]2C)no1` (racemic) [compound 193, (±)-cis-N-[4-methyl-1-(propan-2-yl)pyrrolidin-3-yl]-5-(propan-2-yl)-1,2-oxazole-3-carboxamide], the IC50 came to 7.85 µM.

As for `C[C@H]1CN(Cc2ccc(S(C)(=O)=O)cc2)C[C@H]1NC(=O)c1cc(C2CC2)on1` (racemic) [compound 290, (±)-cis-5-cyclopropyl-N-{1-[(4-methane-sulfonylphenyl)methyl]-4-methylpyrrolidin-3-yl}-1,2-oxazole-3-carboxamide], the concentration for half-maximal inhibition (IC50) came to 10.5 µM.

`C[C@@H]1CN(C2CCS(=O)(=O)CC2)C[C@H]1NC(=O)c1cc(C2CC2)on1` (racemic) [compound 225, (±)-trans-5-cyclopropyl-N-[1-(1,1-dioxo-1??- thian-4-yl)-4-methyl-pyrrolidin-3-yl]-1,2-oxazole-3-carboxamide]: the IC50 was greater than 50 µM.

For `CC(C)c1cc(C(=O)N[C@H]2C[C@@H](CNC(=O)c3ccccc3)N(C3CC3)C2)no1` (racemic) [compound 227, (±)-cis-N-[1-cyclo-propyl-5-[(phenyl-formamido)methyl]pyrrolidin-3-yl]-5-(propan-2-yl)-1,2-oxazole-3-carboxamide], the 50% inhibitory concentration (IC50) is greater than 50 µM.

`C[C@@H]1CN(c2ccncn2)C[C@H]1NC(=O)c1cc(C2CC2)on1` (racemic) [compound 316, (±)-trans-5-cyclopropyl-N-[4-methyl-1-(pyrimidin-4-yl)pyrrolidin-3-yl]-1,2-oxazole-3-carboxamide]: the IC50 is greater than 50 µM.

In the case of `C[C@@H]1CN(C2CC2)C[C@@H]1NC(=O)c1cc(C2CC2)on1` [compound 235, 5-cyclopropyl-N-[(3R,4R)-1-cyclopropyl-4-methyl-pyrrolidin-3-yl]-1,2-oxazole-3-carboxamide], the concentration for half-maximal inhibition (IC50) worked out at 1.15 µM.

As for `CCOC(=O)C(C)CN1C[C@H](C)[C@H](NC(=O)c2cc(C3CC3)on2)C1` (relative stereo) [compound 186, cis-ethyl 3-[3-(5-cyclopropyl-1,2-oxazole-3-amido)-4-methylpyrrolidin-1-yl]-2-methylpropanoate], the IC50 worked out at 20.8 µM.

For the compound `C[C@@H]1CN(c2cnccn2)C[C@H]1NC(=O)c1cc(C2CC2)on1` (racemic) [compound 292, (±)-trans-5-cyclopropyl-N-[4-methyl-1-(pyrazin-2-yl)pyrrolidin-3-yl]-1,2-oxazole-3-carboxamide], the IC50 is greater than 50 µM.

`CC(C)N1C[C@@H](NC(=O)c2cc(C3CC3)on2)C[C@@H]1COCC#CC1CCCCC1` (stereo in doubt) [compound 236, (±)-trans-N-[5-{[(3-cyclo-hexylprop-2-yn-1-yl)oxy]methyl}-1-(propan-2-yl)pyrrolidin-3-yl]-5-cyclopropyl-1,2-oxazole-3-carboxamide]: the IC50 is greater than 50 µM.

As to `COc1ncc(CN2C[C@@H](C)[C@H](NC(=O)c3cc(C4CC4)on3)C2)cc1Br` (racemic) [compound 174, (±)-trans-N-[1-[(5-bromo-6-methoxypyridin-3-yl)methyl]-4-methylpyrrolidin-3-yl]-5-cyclopropyl-1,2-oxazole-3-carboxamide], the IC50 is greater than 50 µM.

As to `C[C@@H]1CN(CC2CC2)C[C@H]1NC(=O)c1cc(C2CC2)on1` (racemic) [compound 126, (±)-trans-5-cyclopropyl-N-[1-(cyclopropyl-methyl)-4-methyl-pyrrolidin-3-yl]-1,2-oxazole-3-carboxamide], the IC50 is greater than 50 µM.

Turning to `C[C@@H]1CN(Cc2ccnc3ccccc23)C[C@H]1NC(=O)c1cc(C2CC2)on1` (racemic) [compound 159, (±)-trans-5-cyclopropyl-N-[4-methyl-1-(quinolin-4-ylmethyl)pyrrolidin-3-yl]-1,2-oxazole-3-carboxamide], the IC50 was greater than 50 µM.

Turning to `C[C@@H]1CN(c2cccc(Cl)c2)C[C@H]1NC(=O)c1cc(C2CC2)on1` (racemic) [compound 297, (±)-trans-N-[1-(3-chloro-phenyl)-4-methyl-pyrrolidin-3-yl]-5-cyclopropyl-1,2-oxazole-3-carboxamide], the IC50 was greater than 50 µM.

`C[C@@H]1CN(CC2CCOCC2)C[C@H]1NC(=O)c1cc(C2CC2)on1` (racemic) [compound 170, (±)-trans-5-cyclopropyl-N-[4-methyl-1-(oxan-4-ylmethyl)pyrrolidin-3-yl]-1,2-oxazole-3-carboxamide]: the half-maximal inhibitory concentration (IC50) was greater than 50 µM.

On to `CC(C)N1C[C@@H](C)[C@H](NC(=O)c2cc(C(F)F)on2)C1` (racemic) [compound 281, (±)-trans-5-(difluoro-methyl)-N-[4-methyl-1-(propan-2-yl)pyrrolidin-3-yl]-1,2-oxazole-3-carboxamide], for which the half-inhibitory concentration (IC50) is greater than 50 µM.

As to `C[C@@H]1CN(Cc2ccc3ncccc3c2)C[C@H]1NC(=O)c1cc(C2CC2)on1` (racemic) [compound 204, (±)-trans-5-cyclopropyl-N-[4-methyl-1-(quinolin-6-ylmethyl)pyrrolidin-3-yl]-1,2-oxazole-3-carboxamide], the IC50 is greater than 50 µM.

Still in this test, the particulars now being: Table 1; average of n = 1 to n = 50; read-out: SMYD2 Biochem IC50.
Take `O=C(NC1CNCC1O)c1cc(C2CC2)on1` (stereo not drawn) [compound 37, 5-cyclopropyl-N-(4-hydroxypyrrolidin-3-yl)isoxazole-3-carboxamide]: the negative-log IC50 (pIC50) is 4.44.

The same test, now with this note: Table 2; average of n = 1 to n = 50; read-out: SMYD2 Biochem IC50.
On to `C[C@@H]1CN(C2CCOCC2)C[C@H]1NC(=O)c1cc(C2CC2)on1` (racemic) [compound 97, (±)-trans-5-cyclopropyl-N-(4-methyl-1-(tetrahydro-2H-pyran-4-yl)pyrrolidin-3-yl)isoxazole-3-carboxamide], for which the pIC50 is less than 4.30.

As for `C[C@H]1CN(Cc2ccccn2)C[C@H]1NC(=O)c1cc(C2CC2)on1` (racemic) [compound 109, (±)-cis-5-cyclopropyl-N-(4-methyl-1-(pyridin-2-ylmethyl)pyrrolidin-3-yl)isoxazole-3-carboxamide], the pIC50 was 4.50.

For the compound `CC(C)N1C[C@H](C)[C@H](NC(=O)c2cc(C3CC3)on2)C1` (racemic) [compound 65, (±)-cis-5-cyclopropyl-N-(1-isopropyl-4-methylpyrrolidin-3-yl)isoxazole-3-carboxamide], the pIC50 is 5.62.

Turning to `C[C@H]1CN(CCS(C)(=O)=O)C[C@H]1NC(=O)c1cc(C2CC2)on1` (racemic) [compound 77, (±)-cis-cyclopropyl-N-((3S)-4-methyl-1-(2-(methyl-sulfonyl)ethyl)pyrrolidin-3-yl)isoxazole-3-carboxamide], the pIC50 was less than 4.30.
